# Results: patent publication US12240816B2, “Deuterated compounds and uses thereof” (Aldeyra Therapeutics, Inc., priority 2015, dated 2025)
# “And” between values parts separate entries of the source, which are not always exact repeats. Equal values may be shown once. Read-outs that look alike come from different tables or passages of the source. Marks after values point to notes of the source that are not given here.
# Key:
# [1] = system: rat hippocampal cultures; assay: Propidium iodide cell death assay, protection from hydrogen peroxide toxicity; type: cell-based
# [2] = target: enzyme and uptake assay panel targets (Table 36) (Homo sapiens, UniProt P06241); assay: biochemical; type: biochemical; settings: Fyn kinase (h); 1.0E−05M
# [3] = target: enzyme and uptake assay panel targets (Table 36) (Homo sapiens, UniProt P56817); assay: biochemical; type: biochemical; settings: BACE-1 (h) (β-secretase); 1.0E−05M; flag INTER: Test compound interferes with the assay detection method
# [4] = target: enzyme and uptake assay panel targets (Table 36) (Homo sapiens, UniProt P03956); assay: biochemical; type: biochemical; settings: MMP-1 (h); 1.0E−05M; flag INTER: Test compound interferes with the assay detection method
# [5] = target: enzyme and uptake assay panel targets (Table 36) (Homo sapiens, UniProt P00519); assay: biochemical; type: biochemical; settings: Abl kinase (h); 1.0E−05M
# [6] = target: enzyme and uptake assay panel targets (Table 36) (Human immunodeficiency virus type 1 group M subtype B, UniProt P04585); assay: biochemical; type: biochemical; settings: HIV-1 protease; 1.0E−05M
# [7] = target: enzyme and uptake assay panel targets (Table 36) (Homo sapiens, UniProt P17948); assay: biochemical; type: biochemical; settings: FLT-1 kinase (h) (VEGFR1); 1.0E−05M
# [8] = NS2 (CoreRx micro-milled, Captisol) 0.1 μM + 10 μM hydrogen peroxide, 5 h
# [9] = NS2 (CoreRx micro-milled, Captisol) 1 μM + 10 μM hydrogen peroxide, 5 h
# [10] = NS2 (CoreRx micro-milled, Captisol) 10 μM + 10 μM hydrogen peroxide, 5 h
# [11] = NS2 (CoreRx micro-milled, Captisol) 100 μM + 10 μM hydrogen peroxide, 5 h
# [12] = NS2 (CoreRx micro-milled, Captisol) 1 mM + 10 μM hydrogen peroxide, 5 h
# [13] = NS2 (CoreRx micro-milled, DMSO) 0.1 μM + 10 μM hydrogen peroxide, 5 h
# [14] = NS2 (CoreRx micro-milled, DMSO) 1 μM + 10 μM hydrogen peroxide, 5 h
# [15] = NS2 (CoreRx micro-milled, DMSO) 10 μM + 10 μM hydrogen peroxide, 5 h
# [16] = NS2 (CoreRx micro-milled, DMSO) 100 μM + 10 μM hydrogen peroxide, 5 h
# [17] = NS2 (CoreRx micro-milled, DMSO) 1 mM + 10 μM hydrogen peroxide, 5 h
# [18] = NS2 (J-Star non-milled, Captisol) 0.1 μM + 10 μM hydrogen peroxide, 5 h
# [19] = NS2 (J-Star non-milled, Captisol) 1 μM + 10 μM hydrogen peroxide, 5 h
# [20] = NS2 (J-Star non-milled, Captisol) 10 μM + 10 μM hydrogen peroxide, 5 h
# [21] = NS2 (J-Star non-milled, Captisol) 100 μM + 10 μM hydrogen peroxide, 5 h
# [22] = NS2 (J-Star non-milled, Captisol) 1 mM + 10 μM hydrogen peroxide, 5 h
# [23] = NS2 (J-Star non-milled, DMSO) 0.1 μM + 10 μM hydrogen peroxide, 5 h
# [24] = NS2 (J-Star non-milled, DMSO) 1 μM + 10 μM hydrogen peroxide, 5 h
# [25] = NS2 (J-Star non-milled, DMSO) 10 μM + 10 μM hydrogen peroxide, 5 h
# [26] = NS2 (J-Star non-milled, DMSO) 100 μM + 10 μM hydrogen peroxide, 5 h
# [27] = NS2 (J-Star non-milled, DMSO) 1 mM + 10 μM hydrogen peroxide, 5 h
# [28] = PI, Captisol formulation, 10 μM hydrogen peroxide, 5 h
# [29] = PI, DMSO formulation, 10 μM hydrogen peroxide, 5 h
# Chain of enzyme and uptake assay panel targets (Table 36) (Homo sapiens, UniProt P00519) (P00519 whole entry): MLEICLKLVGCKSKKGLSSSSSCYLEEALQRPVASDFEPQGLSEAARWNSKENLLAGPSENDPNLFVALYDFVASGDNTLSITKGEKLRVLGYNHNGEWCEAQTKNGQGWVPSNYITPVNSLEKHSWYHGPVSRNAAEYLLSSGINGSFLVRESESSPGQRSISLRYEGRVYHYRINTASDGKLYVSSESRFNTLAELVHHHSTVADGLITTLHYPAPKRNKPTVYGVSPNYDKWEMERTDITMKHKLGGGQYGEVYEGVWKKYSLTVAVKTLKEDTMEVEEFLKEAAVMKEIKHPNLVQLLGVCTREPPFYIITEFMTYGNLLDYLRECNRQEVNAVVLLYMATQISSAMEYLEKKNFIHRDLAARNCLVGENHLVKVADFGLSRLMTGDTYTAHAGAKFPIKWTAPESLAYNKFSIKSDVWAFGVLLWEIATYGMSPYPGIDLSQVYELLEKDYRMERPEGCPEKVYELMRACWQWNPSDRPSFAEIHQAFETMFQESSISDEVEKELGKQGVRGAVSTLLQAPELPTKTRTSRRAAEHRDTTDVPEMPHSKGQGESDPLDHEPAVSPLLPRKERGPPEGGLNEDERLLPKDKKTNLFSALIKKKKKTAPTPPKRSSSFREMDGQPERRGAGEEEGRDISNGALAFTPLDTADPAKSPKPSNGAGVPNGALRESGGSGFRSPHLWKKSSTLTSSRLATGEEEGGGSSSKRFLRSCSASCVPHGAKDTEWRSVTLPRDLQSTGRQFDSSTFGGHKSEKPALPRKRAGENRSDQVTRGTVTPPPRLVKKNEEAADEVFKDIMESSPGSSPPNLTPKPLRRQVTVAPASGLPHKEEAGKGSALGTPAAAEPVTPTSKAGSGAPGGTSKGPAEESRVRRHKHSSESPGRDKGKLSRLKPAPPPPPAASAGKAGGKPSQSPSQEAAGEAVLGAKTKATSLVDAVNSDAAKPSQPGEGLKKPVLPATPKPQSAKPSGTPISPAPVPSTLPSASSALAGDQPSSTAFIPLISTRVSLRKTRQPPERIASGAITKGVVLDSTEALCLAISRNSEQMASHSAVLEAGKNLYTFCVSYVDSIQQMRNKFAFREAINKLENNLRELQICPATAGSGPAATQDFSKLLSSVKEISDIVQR
# Chain of enzyme and uptake assay panel targets (Table 36) (Homo sapiens, UniProt P56817) (P56817 46-501): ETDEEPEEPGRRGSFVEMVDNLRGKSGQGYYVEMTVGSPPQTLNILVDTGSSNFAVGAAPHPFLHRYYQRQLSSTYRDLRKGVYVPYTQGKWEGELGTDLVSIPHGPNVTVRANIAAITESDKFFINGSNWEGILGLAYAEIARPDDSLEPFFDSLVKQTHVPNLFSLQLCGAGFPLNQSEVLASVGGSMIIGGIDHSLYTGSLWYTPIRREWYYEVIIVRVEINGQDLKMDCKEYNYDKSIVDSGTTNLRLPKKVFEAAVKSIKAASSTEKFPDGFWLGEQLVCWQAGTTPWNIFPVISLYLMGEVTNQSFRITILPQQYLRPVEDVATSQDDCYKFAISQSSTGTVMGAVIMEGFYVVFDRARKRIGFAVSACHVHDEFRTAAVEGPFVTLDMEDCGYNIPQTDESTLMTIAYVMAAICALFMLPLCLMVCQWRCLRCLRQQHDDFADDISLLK
# Chain of enzyme and uptake assay panel targets (Table 36) (Homo sapiens, UniProt P03956) (P03956 100-469): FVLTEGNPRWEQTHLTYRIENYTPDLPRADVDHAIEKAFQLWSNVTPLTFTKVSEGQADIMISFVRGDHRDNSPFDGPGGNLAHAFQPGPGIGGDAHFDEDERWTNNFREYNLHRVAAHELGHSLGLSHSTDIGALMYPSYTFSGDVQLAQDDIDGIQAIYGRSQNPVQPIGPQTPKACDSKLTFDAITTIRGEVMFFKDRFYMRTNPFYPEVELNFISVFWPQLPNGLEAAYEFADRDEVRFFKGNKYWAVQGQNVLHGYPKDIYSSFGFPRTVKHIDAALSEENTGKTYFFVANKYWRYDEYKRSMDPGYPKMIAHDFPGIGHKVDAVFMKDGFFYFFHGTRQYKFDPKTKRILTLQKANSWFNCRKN
# Chain of enzyme and uptake assay panel targets (Table 36) (Homo sapiens, UniProt P17948) (P17948 27-1338): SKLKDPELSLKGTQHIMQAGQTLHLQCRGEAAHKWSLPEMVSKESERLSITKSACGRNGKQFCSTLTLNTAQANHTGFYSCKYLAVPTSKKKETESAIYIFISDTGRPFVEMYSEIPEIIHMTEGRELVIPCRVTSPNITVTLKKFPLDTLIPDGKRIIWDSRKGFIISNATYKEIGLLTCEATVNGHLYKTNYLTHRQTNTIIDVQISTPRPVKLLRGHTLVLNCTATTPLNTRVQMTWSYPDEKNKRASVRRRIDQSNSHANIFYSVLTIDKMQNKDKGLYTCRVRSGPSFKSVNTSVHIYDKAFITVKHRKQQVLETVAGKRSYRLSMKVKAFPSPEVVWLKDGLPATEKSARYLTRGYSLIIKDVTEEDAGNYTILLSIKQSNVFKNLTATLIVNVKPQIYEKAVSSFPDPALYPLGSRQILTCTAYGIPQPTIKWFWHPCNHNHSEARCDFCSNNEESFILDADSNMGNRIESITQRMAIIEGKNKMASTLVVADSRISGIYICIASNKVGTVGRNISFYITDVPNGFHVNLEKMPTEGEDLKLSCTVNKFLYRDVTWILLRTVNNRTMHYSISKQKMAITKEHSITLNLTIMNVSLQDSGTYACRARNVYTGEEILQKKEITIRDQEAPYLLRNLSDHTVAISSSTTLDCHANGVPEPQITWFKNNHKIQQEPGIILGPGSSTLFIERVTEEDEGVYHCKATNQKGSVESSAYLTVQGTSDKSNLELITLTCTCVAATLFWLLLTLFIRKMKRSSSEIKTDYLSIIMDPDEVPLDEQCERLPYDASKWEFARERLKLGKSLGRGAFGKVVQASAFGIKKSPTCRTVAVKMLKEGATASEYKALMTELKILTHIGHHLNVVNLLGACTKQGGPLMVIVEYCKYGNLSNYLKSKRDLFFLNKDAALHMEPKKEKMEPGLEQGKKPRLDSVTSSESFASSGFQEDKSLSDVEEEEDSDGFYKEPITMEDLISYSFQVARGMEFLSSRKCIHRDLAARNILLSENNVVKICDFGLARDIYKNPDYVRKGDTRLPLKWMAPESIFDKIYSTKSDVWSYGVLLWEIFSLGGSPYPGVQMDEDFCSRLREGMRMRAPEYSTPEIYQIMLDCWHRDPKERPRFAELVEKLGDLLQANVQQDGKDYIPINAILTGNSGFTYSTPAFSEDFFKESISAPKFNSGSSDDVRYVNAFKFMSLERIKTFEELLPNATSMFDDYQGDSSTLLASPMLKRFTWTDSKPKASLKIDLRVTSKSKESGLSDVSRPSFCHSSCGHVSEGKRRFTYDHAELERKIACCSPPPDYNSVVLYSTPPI
# Chain of enzyme and uptake assay panel targets (Table 36) (Homo sapiens, UniProt P06241) (P06241 whole entry): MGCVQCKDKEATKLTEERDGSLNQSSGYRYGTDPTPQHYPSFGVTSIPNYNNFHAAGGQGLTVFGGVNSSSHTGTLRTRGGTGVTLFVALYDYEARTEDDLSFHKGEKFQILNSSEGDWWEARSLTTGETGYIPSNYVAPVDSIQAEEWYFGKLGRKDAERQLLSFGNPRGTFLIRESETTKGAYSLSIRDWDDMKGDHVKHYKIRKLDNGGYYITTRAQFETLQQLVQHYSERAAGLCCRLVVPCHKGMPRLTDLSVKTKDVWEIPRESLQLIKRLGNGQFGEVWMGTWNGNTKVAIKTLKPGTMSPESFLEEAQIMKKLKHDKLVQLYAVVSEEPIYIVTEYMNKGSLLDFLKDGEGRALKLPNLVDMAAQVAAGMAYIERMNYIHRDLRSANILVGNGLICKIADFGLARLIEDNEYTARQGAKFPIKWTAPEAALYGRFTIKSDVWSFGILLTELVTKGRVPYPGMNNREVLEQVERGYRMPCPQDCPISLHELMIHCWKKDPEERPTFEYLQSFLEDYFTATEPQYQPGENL
structure (smiles),measurement,setting,value
"CC(C)(O)c1nc2ccc(Cl)cc2cc1N [NS2, 2-(3-amino-6-chloroquinolin-2-yl)propan-2-ol]",% of Control (PI),[1]; [8],167 ± 10%
same,"PI signal, Mean",[1]; [8],261
same,"PI signal, replicate wells",[1]; [8],246 (4×) and 323
same,% of Control (PI),[1]; [9],171 ± 9%
same,"PI signal, Mean",[1]; [9],266
same,"PI signal, replicate wells",[1]; [9],246 (2×) and 267 and 319 and 254
same,% of Control (PI),[1]; [10],108 ± 20%
same,"PI signal, Mean",[1]; [10],169*
same,"PI signal, replicate wells",[1]; [10],180 (3×) and 57 and 246
same,% of Control (PI),[1]; [11],115 ± 13%
same,"PI signal, Mean",[1]; [11],180*
same,"PI signal, replicate wells",[1]; [11],246 and 137 and 144 and 180 and 192
same,% of Control (PI),[1]; [12],130 ± 8%
same,"PI signal, Mean",[1]; [12],203*
same,"PI signal, replicate wells",[1]; [12],188 and 217 and 246 and 184 and 180
same,% of Control (PI),[1]; [13],189 ± 9%
same,"PI signal, Mean",[1]; [13],267
same,"PI signal, replicate wells",[1]; [13],315 and 259 and 246 and 263 and 254
same,% of Control (PI),[1]; [14],190 ± 9%
same,"PI signal, Mean",[1]; [14],268
same,"PI signal, replicate wells",[1]; [14],254 (3×) and 315 and 263
same,% of Control (PI),[1]; [15],115 ± 11%
same,"PI signal, Mean",[1]; [15],163*
same,"PI signal, replicate wells",[1]; [15],117 and 137 and 180 and 188 and 192
same,% of Control (PI),[1]; [16],113 ± 11%
same,"PI signal, Mean",[1]; [16],159*
same,"PI signal, replicate wells",[1]; [16],192 and 117 and 125 and 180 (2×)
same,% of Control (PI),[1]; [17],138 ± 6%
same,"PI signal, Mean",[1]; [17],195*
same,"PI signal, replicate wells",[1]; [17],188 and 180 (2×) and 204 and 221
same,% of Control (PI),[1]; [18],165 ± 22%
same,"PI signal, Mean",[1]; [18],232
same,"PI signal, replicate wells",[1]; [18],350 and 180 (2×) and 204 and 246
same,% of Control (PI),[1]; [19],172 ± 24%
same,"PI signal, Mean",[1]; [19],242
same,"PI signal, replicate wells",[1]; [19],180 and 192 and 184 and 315 and 337
same,% of Control (PI),[1]; [20],113 ± 12%
same,"PI signal, Mean",[1]; [20],160*
same,"PI signal, replicate wells",[1]; [20],180 and 188 and 117 (2×) and 196
same,% of Control (PI),[1]; [21],99 ± 7%
same,"PI signal, Mean",[1]; [21],139*
same,"PI signal, replicate wells",[1]; [21],180 and 133 and 129 (2×) and 125
same,% of Control (PI),[1]; [22],120 ± 6%
same,"PI signal, Mean",[1]; [22],169*
same,"PI signal, replicate wells",[1]; [22],180 (3×) and 133 and 172
same,% of Control (PI),[1]; [23],175 ± 17%
same,"PI signal, Mean",[1]; [23],275
same,"PI signal, replicate wells",[1]; [23],350 and 259 and 246 and 315 and 204
same,% of Control (PI),[1]; [24],143 ± 9%
same,"PI signal, Mean",[1]; [24],225
same,"PI signal, replicate wells",[1]; [24],188 and 250 and 246 (2×) and 196
same,% of Control (PI),[1]; [25],115 ± 2%
same,"PI signal, Mean",[1]; [25],181*
same,"PI signal, replicate wells",[1]; [25],180 (3×) and 192 and 172
same,% of Control (PI),[1]; [26],111 ± 18%
same,"PI signal, Mean",[1]; [26],175*
same,"PI signal, replicate wells",[1]; [26],246 (2×) and 133 and 125 (2×)
same,% of Control (PI),[1]; [27],113 ± 15%
same,"PI signal, Mean",[1]; [27],177*
same,"PI signal, replicate wells",[1]; [27],117 and 250 and 180 and 204 and 133
same,Full Efficacy Concentration,[1]; [28],10 µM
same,No effect Concentration,[1]; [28],1 µM
same,EC50,"[1]; PI, Captisol formulation, 10 μM hydrogen peroxide, 5 h, values with * are estimates, listed as NS2 (J-Star), read-out: EC50 ± SE",2.8 µM
same,Full Efficacy Concentration,[1]; [29],10 µM
same,No effect Concentration,[1]; [29],1 µM
same,EC50,"[1]; PI, DMSO formulation, 10 μM hydrogen peroxide, 5 h, values with * are estimates, listed as NS2 (J-Star), read-out: EC50 ± SE",1.1 µM
same,Full protection concentration,"[1]; PI, both NS2 formulations and both batches",10 µM
same,no effect concentration,"[1]; PI, both formulations and batches",1 µM
same,EC50,"[1]; Rattus norvegicus, 5 h, PI, DMSO formulation, 10 μM hydrogen peroxide, 5 h, values with * are estimates, read-out: EC50 ± SE",1.3 µM
same,EC50,"[1]; Rattus norvegicus, PI, across formulations and batches, read-out: EC50 range",1.1 to 2.8 µM
same,EC50,"[1]; Rattus norvegicus, PI, best available estimate, read-out: EC50, mean value for all PI data",2 ± 1 µM
[2H]C([2H])([2H])C(O)(c1nc2ccc(Cl)cc2cc1N)C([2H])([2H])[2H] [Compound I-1],% inhibition of Control Values 1st,[2],−8.6%
same,% inhibition of Control Values 2nd,[2],−0.3%
same,% inhibition of Control Values Mean,[2],−4.5%
same,% inhibition of Control Values 1st,[3],−4.1%
same,% inhibition of Control Values 2nd,[3],−5.7%
same,% inhibition of Control Values Mean,[3],−4.9%
same,% inhibition of Control Values 1st,[4],45.3%
same,% inhibition of Control Values 2nd,[4],10.7%
same,% inhibition of Control Values Mean,[4],28.0%
same,% inhibition of Control Values 1st,[5],−4.8%
same,% inhibition of Control Values 2nd,[5],−11.6%
same,% inhibition of Control Values Mean,[5],−8.2%
same,% inhibition of Control Values 1st,[6],16.6%
same,% inhibition of Control Values 2nd,[6],4.8%
same,% inhibition of Control Values Mean,[6],10.7%
same,% inhibition of Control Values 1st,[7],−15.5%
same,% inhibition of Control Values 2nd,[7],−18.8%
same,% inhibition of Control Values Mean,[7],−17.2%
